Data published in the NIST ThermoML archive (doi:10.1021/je0497496).
Values joined by “and” are separate entries in the source; they are usually repeats but may differ in a detail not shown here. Equal entries are not always repeated.

Settings: for mass density: buoyancy; for vapor or sublimation pressure: Closed cell (Static) method

O=C=O [carbon dioxide]
Fluid (supercritical or subcritical phases)
Settings	mass density
233.06 K, 500.05 kPa	12.0703 kg/m3
233.06 K, 799.98 kPa	20.1488 kg/m3
233.07 K, 105.91 kPa	2.43371 kg/m3 and 2.42701 kg/m3
233.07 K, 300.07 kPa	7.05798 kg/m3
243 K, 1000.7 kPa	24.4253 kg/m3
243.01 K, 300.03 kPa	6.73594 kg/m3
243.01 K, 500.04 kPa	11.476 kg/m3
243.01 K, 800 kPa	19.0248 kg/m3
243.01 K, 1200.7 kPa	30.1422 kg/m3
243.02 K, 100.02 kPa	2.20055 kg/m3
253.21 K, 500.06 kPa	10.9367 kg/m3
253.21 K, 1500.7 kPa	36.7146 kg/m3
253.22 K, 100.07 kPa	2.116 kg/m3
253.22 K, 100.08 kPa	2.11111 kg/m3
253.22 K, 1000.1 kPa	23.0281 kg/m3
253.22 K, 1800.9 kPa	45.9785 kg/m3
263.31 K, 1000.6 kPa	21.8592 kg/m3
263.32 K, 500.07 kPa	10.4541 kg/m3
263.32 K, 1500.1 kPa	34.4562 kg/m3
263.32 K, 2000.2 kPa	48.7144 kg/m3
263.32 K, 2200.2 kPa	55.0401 kg/m3
263.32 K, 2500 kPa	65.4007 kg/m3
263.33 K, 100.03 kPa	2.02538 kg/m3
273.56 K, 100.01 kPa	1.94808 kg/m3
273.56 K, 100.02 kPa	1.95635 kg/m3
273.56 K, 500.01 kPa	10.0139 kg/m3
273.56 K, 1000 kPa	20.7952 kg/m3
273.56 K, 2000.3 kPa	45.5031 kg/m3
273.56 K, 2500.6 kPa	60.111 kg/m3
273.56 K, 3000 kPa	77.0441 kg/m3
273.56 K, 3200.5 kPa	84.7746 kg/m3
273.56 K, 3401.2 kPa	93.2811 kg/m3
283.51 K, 3000.3 kPa	70.8325 kg/m3
283.51 K, 4000.8 kPa	107.963 kg/m3
283.52 K, 100.06 kPa	1.8788 kg/m3
283.52 K, 999.98 kPa	19.8874 kg/m3
283.52 K, 2000 kPa	42.914 kg/m3
283.52 K, 4200.9 kPa	117.472 kg/m3
293.08 K, 100.15 kPa	1.81243 kg/m3
293.08 K, 100.16 kPa	1.8183 kg/m3
293.08 K, 2000 kPa	40.7832 kg/m3
293.08 K, 3000.4 kPa	66.2045 kg/m3
293.08 K, 4000.2 kPa	97.5691 kg/m3
293.08 K, 5000.2 kPa	140.798 kg/m3
293.08 K, 5501.3 kPa	173.325 kg/m3
293.09 K, 1000.2 kPa	19.1053 kg/m3

Liquid
Settings	mass density	vapor or sublimation pressure
233.07 K	1116.54 kg/m3 and 1116.44 kg/m3	1000.7 kPa and 1000.8 kPa
243.01 K	1076.52 kg/m3	1420.4 kPa and 1420.5 kPa
253.22 K	1031.59 kg/m3 and 1031.49 kg/m3	1974.2 kPa and 1974.5 kPa
263.31 K	981.93 kg/m3	2661.6 kPa
263.32 K	981.93 kg/m3	2661.9 kPa
273.55 K	924.89 kg/m3	3522.1 kPa
273.56 K	924.87 kg/m3	3522.4 kPa
283.51 K	858.57 kg/m3	4543.2 kPa
283.52 K	858.55 kg/m3	4543.6 kPa
293.08 K	774.28 kg/m3	5720.9 kPa
293.09 K	774.23 kg/m3	5721.4 kPa
